In patent US5173416A, “L-carnitine dehydrogenase from alcalgenes” (Toyo Jozo Kabushiki Kaisha, priority 1989, dated 1992):
Where two headings read alike, the source gives them in different places.

Tested on: L-carnitine dehydrogenase from Alcaligenes sp. No. 981 (FERM BP-2570)
Assay: Km determination of L-carnitine dehydrogenase (diaphorase/NBT coupled reaction mixture)
Type: biochemical
Protocol: Km-value for NAD^+ is measured in various concentrations of NAD^+ in a reaction mixture of:
100 mM Tris-HCl buffer (pH 9.0)
5 U diaphorase (Toyo Jozo Co.)
0.025% NBT (Wako Pure Chem. Co.)
1% Tween 80 (Wako Pure Chem. Co.) and
In the reaction mixture, 50 mM L-carnitine is replaced by 1 mM NAD^+, and the concentration of L-carnitine is varied to measure the Km-value of L-carnitine.
The results are as shown above.

Km (100 mM Tris-HCl buffer pH 9.0, 50 mM L-carnitine, NAD+ concentration varied, read-out: Km-value (NAD+)) [mM] | Compound | Km (100 mM Tris-HCl buffer pH 9.0, 1 mM NAD+, L-carnitine concentration varied, read-out: Km-value (L-carnitine)) [mM]
– | C[N+](C)(C)C[C@H](O)CC(=O)[O-] [L-carnitine] | 9.3
0.141 | NC(=O)c1ccc[n+]([C@@H]2O[C@H](COP(=O)([O-])OP(=O)(O)OC[C@H]3O[C@@H](n4cnc5c(N)ncnc54)[C@H](O)[C@@H]3O)[C@@H](O)[C@H]2O)c1 [NAD^+] | –
